These results are taken from ChEMBL document CHEMBL5465560, “Selectivity Literature for EUbOPEN Chemogenomic Library” (2024).

Assay [1] deals with T1, NUAK family SNF1-like kinase 1 (Homo sapiens) (UniProt O60285).
T1 sequence (whole entry): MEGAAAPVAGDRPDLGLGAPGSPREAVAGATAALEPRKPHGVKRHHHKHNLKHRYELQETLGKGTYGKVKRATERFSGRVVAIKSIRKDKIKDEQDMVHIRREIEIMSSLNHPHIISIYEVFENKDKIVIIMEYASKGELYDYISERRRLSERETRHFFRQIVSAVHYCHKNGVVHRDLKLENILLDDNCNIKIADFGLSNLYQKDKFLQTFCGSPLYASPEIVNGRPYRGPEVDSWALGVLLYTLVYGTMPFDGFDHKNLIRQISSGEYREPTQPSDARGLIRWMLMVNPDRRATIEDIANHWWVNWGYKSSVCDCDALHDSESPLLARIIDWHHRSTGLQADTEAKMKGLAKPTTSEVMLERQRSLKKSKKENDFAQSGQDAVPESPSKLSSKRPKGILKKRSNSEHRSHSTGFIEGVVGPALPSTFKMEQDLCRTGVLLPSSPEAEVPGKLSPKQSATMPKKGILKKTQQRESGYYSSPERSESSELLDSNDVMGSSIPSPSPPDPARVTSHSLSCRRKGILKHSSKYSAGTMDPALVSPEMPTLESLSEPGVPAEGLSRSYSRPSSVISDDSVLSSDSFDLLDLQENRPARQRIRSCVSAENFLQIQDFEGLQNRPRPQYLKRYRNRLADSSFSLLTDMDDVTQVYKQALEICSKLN
Conditions: at 10 µM.

The target in assay [2] is T2, Myosin-IIIb (Homo sapiens) (UniProt Q8WXR4).
T2 sequence (whole entry): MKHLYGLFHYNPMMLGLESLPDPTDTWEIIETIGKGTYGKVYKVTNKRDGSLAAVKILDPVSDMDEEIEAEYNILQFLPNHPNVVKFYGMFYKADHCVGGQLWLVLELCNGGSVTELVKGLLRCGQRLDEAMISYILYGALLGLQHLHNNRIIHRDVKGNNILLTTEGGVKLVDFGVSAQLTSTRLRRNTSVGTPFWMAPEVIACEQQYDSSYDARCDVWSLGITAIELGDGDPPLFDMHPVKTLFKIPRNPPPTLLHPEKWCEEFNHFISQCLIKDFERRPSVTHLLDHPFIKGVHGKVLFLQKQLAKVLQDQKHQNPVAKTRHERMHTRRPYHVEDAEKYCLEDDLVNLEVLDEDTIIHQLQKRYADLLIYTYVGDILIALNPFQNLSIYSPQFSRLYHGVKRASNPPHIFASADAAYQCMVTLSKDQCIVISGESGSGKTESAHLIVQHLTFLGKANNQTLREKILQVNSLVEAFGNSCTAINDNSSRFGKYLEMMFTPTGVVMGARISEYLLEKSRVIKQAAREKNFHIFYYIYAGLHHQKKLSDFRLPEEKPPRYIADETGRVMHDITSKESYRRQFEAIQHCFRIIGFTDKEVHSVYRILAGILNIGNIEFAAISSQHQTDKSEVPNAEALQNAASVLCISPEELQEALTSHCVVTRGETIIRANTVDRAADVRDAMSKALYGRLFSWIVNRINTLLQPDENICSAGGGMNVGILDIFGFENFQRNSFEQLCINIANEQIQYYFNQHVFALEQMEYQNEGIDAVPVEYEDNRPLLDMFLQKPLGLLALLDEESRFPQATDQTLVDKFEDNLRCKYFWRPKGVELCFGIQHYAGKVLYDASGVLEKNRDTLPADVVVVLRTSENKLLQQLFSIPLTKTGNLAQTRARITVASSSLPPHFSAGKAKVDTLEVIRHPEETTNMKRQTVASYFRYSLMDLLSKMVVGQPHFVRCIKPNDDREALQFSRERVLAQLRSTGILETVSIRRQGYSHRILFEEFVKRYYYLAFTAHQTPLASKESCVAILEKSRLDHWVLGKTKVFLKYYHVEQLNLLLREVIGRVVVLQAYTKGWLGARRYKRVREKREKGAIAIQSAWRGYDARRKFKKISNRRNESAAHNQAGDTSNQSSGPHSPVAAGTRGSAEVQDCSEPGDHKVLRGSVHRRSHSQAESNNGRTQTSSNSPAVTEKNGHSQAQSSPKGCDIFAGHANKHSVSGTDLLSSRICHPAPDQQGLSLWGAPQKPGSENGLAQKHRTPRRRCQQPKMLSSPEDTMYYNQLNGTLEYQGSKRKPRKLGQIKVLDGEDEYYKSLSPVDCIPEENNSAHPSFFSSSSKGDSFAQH
Briefly: Selectivity interaction (KinomeScan (DiscoverX)) EUB0000666a MYO3B. Conditions: at 10 µM.

The target of assay [3] is T3, Protein arginine N-methyltransferase 9 (Homo sapiens) (UniProt Q6P2P2).
T3 sequence (whole entry): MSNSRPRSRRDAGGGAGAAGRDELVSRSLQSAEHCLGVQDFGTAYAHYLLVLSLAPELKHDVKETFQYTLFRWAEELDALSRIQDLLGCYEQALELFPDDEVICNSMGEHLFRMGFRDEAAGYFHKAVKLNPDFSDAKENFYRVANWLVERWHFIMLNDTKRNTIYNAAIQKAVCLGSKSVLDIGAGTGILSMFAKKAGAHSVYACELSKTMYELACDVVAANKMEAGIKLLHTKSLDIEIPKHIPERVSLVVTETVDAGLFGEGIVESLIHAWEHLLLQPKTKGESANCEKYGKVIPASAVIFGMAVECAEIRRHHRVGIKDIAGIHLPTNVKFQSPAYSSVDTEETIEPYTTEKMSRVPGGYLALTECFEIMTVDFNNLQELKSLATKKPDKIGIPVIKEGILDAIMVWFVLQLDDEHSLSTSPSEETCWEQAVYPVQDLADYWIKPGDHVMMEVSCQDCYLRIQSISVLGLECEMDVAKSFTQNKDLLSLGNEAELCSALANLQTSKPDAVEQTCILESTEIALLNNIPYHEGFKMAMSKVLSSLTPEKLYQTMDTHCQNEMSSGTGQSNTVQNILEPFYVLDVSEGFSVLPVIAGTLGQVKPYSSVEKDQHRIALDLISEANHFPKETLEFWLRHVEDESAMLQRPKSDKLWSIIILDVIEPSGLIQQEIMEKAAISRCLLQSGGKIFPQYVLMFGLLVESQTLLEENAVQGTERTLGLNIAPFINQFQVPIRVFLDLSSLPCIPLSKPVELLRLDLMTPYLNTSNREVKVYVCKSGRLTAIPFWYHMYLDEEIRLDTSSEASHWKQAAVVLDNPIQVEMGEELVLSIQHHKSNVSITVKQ
Briefly: Selectivity interaction (Methyltransferase screen (radiometric assays, panel of 8 PRMTs, 21 protein lysine methyltransferases, 3 DNA methyltransferases, and one RNA methyltransferase)) EUB0000272b PRMT9.

Structures are written as SMILES.

In assay [1], `CCN(CC)CCCCNc1ncc2cc(-c3cc(OC)cc(OC)c3)c(NC(=O)NC(C)(C)C)nc2n1` registered a % of control of 100%. `O=C(NOC[C@H](O)CO)c1ccc(F)c(F)c1Nc1ccc(I)cc1F` came in with a % of control in assay [2] of 99%. In the case of `Cc1cc(C)cc([C@H]2c3cc(C)ccc3NC(=O)CN2C(=O)c2ccc(Br)s2)c1`, the % of activity in assay [3] (at 1 µM) and in assay [3] (at 10 µM) was 105% each time.
